What was measured:
[1] = system: human dental pulp stem cells (hDPSCs); experiment: Cytotoxicity test: mitochondrial dehydrogenase activity and intracellular DNA content; type: cell-based; settings: hDPSCs exposed to 32% phosphoric acid, 0.1M EDTA or 25 mg/ml GCE; PBS control
From the text: (§1) FIG. 5A detects the mitochondrial dehydrogenase activity (Mito.) of human dental pulp stem cells (hDPSCs) that had been exposed to different dentin demineralizing agents.
FIG. 5B detects intracellular DNA content of human dental pulp stem cells that had been exposed to different dentin demineralizing agents.
as §1, with “agents. FIG. 5B detects intracellular DNA content of human dental pulp stem cells that had been exposed to different dentin demineralizing agents.” for “agents.”

[2] = Degree of degradation of dentin collagen in dentin mixed layers; settings: ranking among 32% phosphoric acid, EDTA and GCE
Description: FIG. 4B compares degree of degradation of dentin collagen in each group of the dentin mixed layers.
In this experiment, the inhibitory effect of GCE on soluble MMP-9 was evaluated using purified recombinant human MMP-9 (rhMMP-9) and a generic MMP assay kit (Sensolyte, AnaSpec Inc., Fremont, CA, USA). The MMP assay kit contains an intact thiopeptolide that is cleaved by specific MMPs to release a sulfhydryl group that produces colored 2-nitro-5-thiobenzoic acid with Ellman's reagent. A series of EDTA and GCE solutions (50 mg/mL, 25 mg/mL, 10 mg/mL, 5 mg/mL, 1 mg/mL) were used as test agents and 32% H3PO4 was used for comparison. […] Readings were taken after 60 min of incubation at 37° C. Absorbance was measured at 412 nm using a 96-well plate reader (VICTOR Nivo™, PerkinElmer). Background absorbance was determined from the “substrate control” wells and subtracted from the readings of the other wells containing the thiopeptolide substrate. The potency of rhMMP-9 inhibition by GM6001, the kit-included MMP inhibitor, and the […] concentrations of EDTA or GCE were expressed as percentages of the adjusted absorbance of the “positive control”. Inhibition of MMP (%) was calculated as 1−([A]test compound group−[A]test compound control)/([A]positive control−[A]substrate control), where [A] represents the absorbance values of the wells. […]

[3] = Rate of chelating Ca2+ from mineralized dentin, inductively coupled plasma-atomic emission spectrometry; settings: 0.1M EDTA vs EDTA cross-linked glycol chitosan at 50, 25 and 10 mg/ml
[4] = Transmission electron microscopy of mineralized dentin treated with demineralizing agents; settings: 0.1M EDTA for 60 seconds or 25 mg/ml glycol chitosan-EDTA for 30 seconds
Description: For wet bonding, the conditioned specimen was kept moist by removing excess water from the dentin surface with lint-free tissues prior to bonding. For dry bonding, the conditioned dentin was air-dried with […] moisture-free air for 5 sec. The dentin bond strength was measured by the following methods. After treatment with various demineralizing agents and rinsing with deionized water, each tooth segment was bonded with Adper Single Bond 2 (3M ESPE; St Paul, MN, USA). After bonding, a 4-mm thick of resin composite (Z250, 3M ESPE) was placed over the adhesive-coated dentin surface using incremental light-curing. The bonded teeth with composite build-ups were stored in water for 24 hours at 37° C. Each specimen was subsequently sectioned to 0.9 mm×0.9 mm×7 mm long sticks, each with the resin-dentin interface in the middle of the stick. Each stick was attached with cyanoacrylate glue (Zapit; Dental Ventures of America, Corona, CA, USA) to a testing jig and stressed to failure under tension in a universal testing machine (Vitrodyne V1000; Liveco Inc., Burlington, VT, USA) at a cross-head speed of 1 mm/min. The tensile load at failure was recorded and divided by the measured cross-sectioned area of each beam to yield the tensile bond strength. The mean bond strength value derived from the 4 beams of each tooth was used to represent the tensile bond strength of that particular tooth. […]

| degradation rate of collagen [2] | SMILES | cell viability [1] | demineralization effect (rate of chelating Ca2+) [3] | extent of dentin demineralization in TEM image [4] |
| --- | --- | --- | --- | --- |
| followed by EDTA | O=C(O)CN(CCN(CC(=O)O)CC(=O)O)CC(=O)O [EDTA, ethylenediaminetetraacetic acid] | followed by the EDTA group | strongest demineralization effect | complete demineralization in a part of area and partial demineralization in some areas |
| highest | O=P(O)(O)O [phosphoric acid] | lowest | – | – |
